Source: US5441944A, “Substituted cyclodextrin sulfates and their uses as growth modulating agents” (The Trustees of the University of Pennsylvania, priority 1992, dated 1995)

Key:
[1] = conductivity measurements in deionized water; type: physicochemical
From the text: Conductivity is an accepted method for measuring the degree of ionic substitution and can be used to evidence the addition of a charged group, such as sulfate to a compound. […] Results of conducting measurements obtained in deionized water having a background conductivity of 2.5 (±0.2)×[…] mho/cm are shown in Table I.

[2] = system: tumor angiogenesis in hamster cheek pouches; details: Shubik et al. 1976, cited from earlier work
[3] = system: tumor angiogenesis in rabbit corneas; details: Gross et al. 1981; cited from earlier work
[4] = dye staining analysis for high density sulfate saccharides (Alcian Blue, alumina TLC plate); type: physicochemical; details: 0.8 mg/ml sample, 1 μl spot; 0.5 mg/ml Alcian Blue, 0.25M acetate buffer, 5.6 pH
Description: Such complexing behavior has been utilized in histology, for selective staining to indicate high sulfur natural saccharides such as heparin (Snow et al., 1987, Human Pathology 18:506-510 and Dorling, 1969, Med. Lab. Techn. 26:124-130).
The following procedure was used to detect the presence of high density sulfate groups. An alumina TLC plate (Analtech, Newark, Del.) was spotted with a drop (1 μl) of a sample (0.8 mg/ml) to be tested. The spot or spots were dried for 10 minutes at about 60° C. Aqueous solution of 0.5 mg/ml of Alcian Blue (8GX, Aldrich), buffered with 0.25M acetate buffer at 5.6 pH is allowed to rise along the plate up to and past the test spot.

[5] = type: physicochemical; details: water
Description: The substituted CD sulfates useful in the present invention are highly hydrophilic and therefore very water soluble, with a solubility of at least 20 gm/100 ml in water at 0° C. Without wishing to be bound by theory, we believe that a highly hydrophilic character is important to allow interaction with cellular surfaces. We also believe a very high water solubility of the derivative is an important factor which cooperatively interacts with the inherent complexing ability of the CD structure to provide effective inhibition of angiogenesis with an exogenous steroid, as provided by this invention. We believe that the hydrophilic activity is roughly indicated by the affinity to water, as measured by water solubility. It is important to measure the same at 0° C. since at higher temperatures the most suitable derivatives have solubilities so high that it is difficult to obtain meaningful measurements.

capillary growth; tumors = details: cited from earlier work

Compound	Conductivity [1]	inhibition of tumor angiogenesis [3]	further results
n-tetrapropoxy-β-cyclodextrin [n-tetrapropoxy β-cyclodextrin]	immeasurable	–	–
OC[C@H]1O[C@@H]2O[C@H]3[C@H](O)[C@@H](O)[C@@H](O[C@H]4[C@H](O)[C@@H](O)[C@@H](O[C@H]5[C@H](O)[C@@H](O)[C@@H](O[C@H]6[C@H](O)[C@@H](O)[C@@H](O[C@H]7[C@H](O)[C@@H](O)[C@@H](O[C@H]8[C@H](O)[C@@H](O)[C@@H](O[C@H]1[C@H](O)[C@H]2O)O[C@@H]8CO)O[C@@H]7CO)O[C@@H]6CO)O[C@@H]5CO)O[C@@H]4CO)O[C@@H]3CO [β-cyclodextrin]	immeasurable	–	–
C[C@H]1C[C@@H]2[C@H]([C@@H](O)C[C@@]3(C)[C@H]2CC[C@]3(O)C(=O)CO)[C@@]2(C)C=CC(=O)C=C12 [6 α-methyl prednisolone]	–	–	tumor growth [2]: tumor growth was not stopped; suppression of tumor angiogenesis ([2]; under certain conditions): partially suppressed tumor angiogenesis
C[C@]12CC[C@@H]3c4ccc(O)cc4CC[C@H]3[C@@H]1CC[C@@H]2O [estradiol]	–	ineffective	–
C[C@]12CC[C@H]3[C@@H](CCC4=CC(=O)CC[C@@]43C)[C@@H]1CC[C@@H]2O [testosterone]	–	ineffective	–
β-cyclodextrin tetradecasulfate	–	–	Conductivity (average of 2 samples) ([1]; average of 2 samples): 4.6 10^-4 mho/cm per mg/ml; Alcian Blue stain [4]: generate an Alcian Blue stain
n-tetrapropoxy-β-cyclodextrin sulfate	4.5 10^-4 mho/cm per mg/ml	–	Alcian Blue stain [4]: generate an Alcian Blue stain; solubility [5]: 37 gm/100 ml H2O
C[C@@H]1C[C@H]2[C@@H]3CCC4=CC(=O)C=C[C@]4(C)[C@@]3(F)[C@@H](O)C[C@]2(C)[C@@]1(O)C(=O)CO [dexamethasone]	–	inhibited tumor angiogenesis	–
CC(=O)[C@@]1(O)CC[C@H]2[C@@H]3C[C@H](C)C4=CC(=O)CC[C@]4(C)[C@H]3CC[C@@]21C [medroxyprogestrone]	–	inhibited tumor angiogenesis	–
C[C@]12CCC(=O)C=C1CC[C@@H]1[C@@H]2C(=O)C[C@@]2(C)[C@H]1CC[C@]2(O)C(=O)CO [cortisone, 17 alpha, 21-dihydroxy-4-pregene-3,11,20-trione]	–	to a lesser extent cortisone, inhibited tumor angiogenesis	inhibition of capillary growth (capillary growth; tumors; cortisone by itself): does not have the ability to inhibit capillary growth; tumor growth (capillary growth; tumors; large amounts of cortisone, many other publications): continued growth of tumors
